This passage reports EC50 results from patent US12617747B2, “Cannabinoid analogs and methods for their preparation” (InMed Pharmaceuticals Inc., priority 2018, dated 2026).

The experiment has as its target T1, human CB2 receptor (Homo sapiens, UniProt P34972).
T1 construct: HA; expressed in transfected cells
Kind of experiment: CB2 receptor agonist activity in AtT20 cells stably expressing HA-tagged human CB2 receptors. The experiment is classed as cell-based. The conditions noted are these: method of Udoh et al. 2019. The source says: The activity of 5-fluorocannabichromene (5F-CBC) was studied in AtT20 cells stably expressing HA-tagged human CB1 and CB2 receptors, as described by Udoh, et al. (“Cannabichromene is a cannabinoid CB2 receptor agonist.” British Journal of Pharmacology, 2019, doi: 10.1111/bph.14815).

T1 sequence (P34972 whole entry): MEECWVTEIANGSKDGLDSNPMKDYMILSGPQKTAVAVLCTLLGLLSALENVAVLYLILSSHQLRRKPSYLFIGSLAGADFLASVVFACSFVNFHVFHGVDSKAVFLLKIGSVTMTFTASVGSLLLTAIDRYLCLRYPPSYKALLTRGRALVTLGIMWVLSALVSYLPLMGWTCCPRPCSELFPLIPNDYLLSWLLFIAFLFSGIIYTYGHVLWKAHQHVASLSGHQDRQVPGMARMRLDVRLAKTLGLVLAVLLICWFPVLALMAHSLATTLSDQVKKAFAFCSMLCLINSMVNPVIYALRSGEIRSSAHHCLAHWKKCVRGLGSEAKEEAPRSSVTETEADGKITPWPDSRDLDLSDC

By EC50 is commonly meant the midpoint of the concentration-response curve. Compound `CC(C)=CCCC1(C)C=Cc2c(O)cc(CCCCCF)cc2O1` (stereo not shown) [5F-CBC, 7-(5-fluoropentyl)-2-methyl-2-(4-methyl-pent-3-enyl)-2H-chromen-5-ol] came in with an EC50 of 2100 nM.
